Source: US10653651B2, “Kit for treating cancer with low molecular weight components of aurin tricarboxylic acid complex” (Aurin Biotech Inc., priority 2014, dated 2020)
Where two headings read alike, the source gives them in different places.

Key:
[1] = system: A549 human lung cancer cell line; test: A549 cell growth in zymosan-activated human serum (MTT cell viability); format: cell-based; details: A549 cells, 15% human serum, n=4, read-out: IC50, inhibition of A549 cell growth induced by zymosan-activated human serum complement
Description: (§1) Experiment 1 was designed to determine the effect of ATA, AHA, AQA and ATAC on U251 cell growth in the presence of complement activated human serum. In Experiment 1(a), U251 cells were treated with various concentrations of human serum (1, 5, 7.5, 10, 12.5, 15%) in DMEM and incubated with 1 μg/mL zymosan at 37° C. for 72 h. Control U251 cells (CON) were incubated in fresh DMEM only. As a further control U251 cells were treated with 10% human serum heated at 56° C. for 30 min to heat inactivate complement (HIS) before incubation with 1 μg/ml zymosan. In Experiment 1(b), U251 cells were treated with various concentrations of ATAC, ATA, AQA and AHA (0.1, 1, 5, 10, 30, 50 μM) in DMEM with 15% human serum and incubated with 1 μg/mL zymosan at 37 ° C. for 72 h. In both Experiments 1(a) and 1(b), following incubation, cell viability was evaluated by MTT (3-[4,5-dimethylthiazol-2-yl]-2,5 diphenyl tetrazolium bromide) assays by adding MTT to the cell cultures to reach a final concentration of 1 mg/mL. Following a 1 h incubation at 37° C., the dark crystals formed were dissolved by adding a SDS/DMF extraction buffer (300 μL, 20% sodium dodecyl sulfate, 50% N,N-dimethylformamide, pH 4.7). Plates were subsequently incubated overnight at 37° C. and optical densities at 570 nm were measured by transferring 100 μL aliquots to 96-well plates and using a plate reader with a corresponding filter.
(§2) Experiment 5 was designed to determine the effect of ATA, AHA, AQA and ATAC on BxPC-3 cell growth in the presence of complement activated human serum.
Experiment 9 was designed to determine the effect of ATA, AQA, AHA and ATAC on A549 cell growth. The protocol was identical to that used in Experiment 5(b) except A549 cells were used.

[2] = system: human colorectal adenocarcinoma cell line LS180; test: LS180 cell growth in zymosan-activated human serum (MTT cell viability); format: cell-based; details: LS180 cells, EMEM, 15% human serum, n=4, read-out: IC50, inhibition of LS180 cell growth induced by zymosan-activated human serum complement
Description: as §1
Experiment 19 was designed to determine the effect of ATA, AQA, AHA and ATAC on growth of the human colorectal adenocarcinoma LS180 cell line. The protocol was identical to that used in Experiment 17(b) except that colorectal adenocarcinoma cells were utilized and the growth medium was EMEM.

[3] = system: colorectal adenocarcinoma LS180 cells; test: Lactic dehydrogenase release from LS180 cells; format: cell-based, human; details: n=4, read-out: IC50, lactate dehydrogenase release from LS180 cells
Description: (§3) Experiment 4 was designed to confirm apoptotic cell death of U251 cells induced by ATA, AQA, AHA, and ATAC by measuring release of lactic dehydrogenase into the cell medium. For serum lactate dehydrogenase determination, reaction supernatants ([…]) were pipetted into the wells of 96-well plates, followed by the addition of […] lactate solution (36 mg/mL in PBS) and […] INT (iodonitrotetrazolium chloride, 2-(4-iodophenyl)-3-(4-nitrophenyl)-5-phenyl-2H-tetrazolium chloride) solution (2 mg/mL in PBS). The enzymatic reaction was started by addition of […] of NAD^+/diaphorase solution (3 mg/mL NAD^+; 2.3 mg solid/mL diaphorase). After 1 h, optical densities were measured with a microplate reader using a 490 nm filter. The amount of LDH released was expressed as a percentage of the value obtained in comparative cells where cells were 100% lysed by 1% Triton X-100.
Experiment 20 was designed to determine if apoptotic death of colorectal adenocarcinoma LS180 cells was induced by ATA, AQA, AHA, and ATAC as determined by the release of lactic dehydrogenase into the cell medium. The protocol was identical to that used in Experiment 18(b) except that colorectal adenocarcinoma cells were used.

[4] = system: BT 474 human breast cancer cell line; test: BT 474 cell growth in zymosan-activated human serum (MTT cell viability); format: cell-based; details: BT 474 cells, 15% human serum, n=4, read-out: IC50, inhibition of BT 474 cell growth induced by zymosan-activated human serum complement
Description: as §1
Experiment 13 was designed to determine the effect of ATA, AQA, AHA and ATAC on BT 474 cell growth. The protocol was identical to that used in Experiment 1(b) except BT 474 cells were used.

[5] = system: human colorectal cancer cell line SW 480; test: SW 480 cell growth in zymosan-activated human serum (MTT cell viability); format: cell-based; details: 15% human serum, n=4, read-out: IC50, inhibition of SW 480 cell growth induced by zymosan-activated human serum complement
Description: as §1
Experiment 23 was designed to determine the effect of ATA, AQA, 15 AHA and ATAC on growth of the human colorectal cancer cell line SW 480. The protocol was identical to that used in Experiment 15(b) except that human colorectal cancer SW480 cells were utilized. Experiment 24 was designed to determine if apoptotic death of human carcinoma SW 480 cells was induced by ATA, AQA, AHA, and ATAC as determined by the release of lactic dehydrogenase into the cell medium. The protocol was identical to that used in Experiment 15(d) except that human carcinoma SW480 cells were used and the growth medium was DMEM.

[6] = system: K562 human chronic myelogenous leukemia cells; test: Lactic dehydrogenase release from K562 cells; format: cell-based; details: n=4, read-out: IC50, lactate dehydrogenase release from K562 cells
Description: as §3
Experiment 18 was designed to determine if apoptotic cell death of K562 human chronic myelogenous leukemia cells was induced by ATA, AQA, AHA, and ATAC as determined by the release of lactic dehydrogenase into the cell medium. The protocol was identical to that used in Experiment 16(b) except that K562 human chronic myelogenous leukemia cells were used.

[7] = system: DOHH2 human B-cell carcinoma cell line; test: DOHH2 cell growth in zymosan-activated human serum (MTT cell viability); format: cell-based; details: 15% human serum, n=4, read-out: IC50, inhibition of DOHH2 cell growth induced by zymosan-activated human serum complement
Description: as §1
Experiment 15 was designed to determine the effect of ATA, AQA, 15 AHA and ATAC on DOHH2 human B-cell carcinoma cell growth. The protocol was identical to that used in Experiment 9(b) except DOHH2 human B-cell carcinoma cells were used.

[8] = system: BxPC-3 human pancreatic adenocarcinoma cell line; test: BxPC-3 cell growth in zymosan-activated human serum (MTT cell viability); format: cell-based; details: BxPC-3 cells, RPMI 1640, 15% human serum, 1 μg/mL zymosan, 72 h, n=4, read-out: IC50, inhibition of BxPC-3 cell growth induced by zymosan-activated human serum complement
Description: as §1, §2

| IC50 [1] [µM] | IC50 [2] [µM] | IC50 [4] [µM] | IC50 [8] [µM] | IC50 [3] [µM] | IC50 ([5]; SW 480 cells) [µM] | IC50 [6] [µM] | IC50 ([7]; DOHH2 cells) [µM] | Compound | IC50 ([3]; Homo sapiens) [µM] | IC50 ([5]; SW480, SW 480 cells) [µM] | IC50 ([6]; Homo sapiens) [µM] | IC50 ([7]; DOHH-2, DOHH2 cells) [µM] |
| --- | --- | --- | --- | --- | --- | --- | --- | --- | --- | --- | --- | --- |
| 7.5 | 5.1 | 5.8 | 6.8 | 5 | 6.8 | 4.6 | 4.9 | aurin hexacarboxylic acid [AHA] |  |  |  |  |
| 7.4 | 5.2 | 6 | 6.7 | 5.1 | 7 | 4.6 | 5 | aurin quadracarboxylic acid [AQA] |  |  |  |  |

| Compound | IC50 [1] [µM] | IC50 [2] [µM] | IC50 [4] [µM] | IC50 [8] [µM] | IC50 [3] [µM] | IC50 ([5]; SW 480 cells) [µM] | IC50 [6] [µM] | IC50 ([7]; DOHH2 cells) [µM] | IC50 ([3]; Homo sapiens) [µM] | IC50 ([5]; SW480, SW 480 cells) [µM] | IC50 ([6]; Homo sapiens) [µM] | IC50 ([7]; DOHH-2, DOHH2 cells) [µM] |
| --- | --- | --- | --- | --- | --- | --- | --- | --- | --- | --- | --- | --- |
| O=C(O)C1=CC(=C(c2ccc(O)c(C(=O)O)c2)c2ccc(O)c(C(=O)O)c2)C=CC1=O [ATA, aurin tricarboxylic acid] | 7.2 | 4.8 | 5.9 | 6.5 |  |  |  |  | 4.9 | 7 | 4.7 | 5.1 |
